Reference: the supplement of paper PMC10307832

What was measured:
Test in all cases: relative viability (nuclei count vs DMSO), 5 days (fraction); higher = more cells survive
[1] = compound: COC1=CC=C(C=C1)CN2C=CC3=C2C=C(C=C3)C(=O)NO + CC(C)C[C@H](NC(=O)[C@H](Cc1ccccc1)NC(=O)c1cnccn1)B(O)O [Bortezomib] (partner 0.002 µM)
In short: (§1)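 Lung cancer cell lines in 1536-well plates were dosed by pin tool the day after seeding, either with one drug alone or with a fixed anchor-drug dose plus five library-drug doses (not always all listed) in √10 steps. After 5 days, cells were fixed and their nuclei stained in one step (final 0.05% Triton X-100, 1% formaldehyde, 1 ug/ml Hoechst), then counted on 4× images. Relative viability is the nuclei count in treated wells divided by that in vehicle wells. Values are medians of duplicate plates.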

[2] = compound: C[C@]1(c2nc3c(C(N)=O)cccc3[nH]2)CCCN1 [Veliparib] + CC1(C)CCC(c2ccc(Cl)cc2)=C(CN2CCN(c3ccc(C(=O)NS(=O)(=O)c4ccc(N[C@H](CCN5CCOCC5)CSc5ccccc5)c(S(=O)(=O)C(F)(F)F)c4)cc3)CC2)C1 [Navitoclax] (partner 0.5 µM)
In short: as §1

[3] = compound: C[C@]1(c2nc3c(C(N)=O)cccc3[nH]2)CCCN1 [Veliparib] + CS(=O)(=O)N1CCN(Cc2cc3nc(-c4cccc5[nH]ncc45)nc(N4CCOCC4)c3s2)CC1 [Pictilisib] (partner 1 µM)
In short: as §1

[4] = compound: C[C@]1(c2nc3c(C(N)=O)cccc3[nH]2)CCCN1 [Veliparib] + Cc1nc(Nc2ncc(C(=O)Nc3c(C)cccc3Cl)s2)cc(N2CCN(CCO)CC2)n1 [Dasatinib] (partner 0.075 µM)
In short: as §1

SW 1573
relative viability ([1]; first compound 0.253 µM): 1.18
relative viability ([1]; first compound 0.8 µM): 1.15
relative viability ([1]; first compound 2.53 µM): 1.13
relative viability ([1]; first compound 8 µM): 0.906
relative viability ([2]; first compound 0.02 µM): 1.02
relative viability ([2]; first compound 0.06325 µM): 0.934
relative viability ([2]; first compound 0.2 µM): 1.1
relative viability ([2]; first compound 0.6325 µM): 0.736
relative viability ([2]; first compound 2 µM): 0.93
relative viability ([3]; first compound 0.02 µM): 0.459
relative viability ([3]; first compound 0.06325 µM): 0.587
relative viability ([3]; first compound 0.2 µM): 0.476
relative viability ([3]; first compound 0.6325 µM): 0.497
relative viability ([3]; first compound 2 µM): 0.418
relative viability ([4]; first compound 0.06325 µM): 0.659
relative viability ([4]; first compound 0.2 µM): 0.38
relative viability ([4]; first compound 0.6325 µM): 0.391
relative viability ([4]; first compound 2 µM): 0.439
